In brackets after ≈: the same amount, converted by molar mass. Entries after “also recorded” stand apart in the source; their conditions may differ. Like-named read-outs stand apart in the source and are kept apart here.
What was measured:
[1] = Phase IIa safety and tolerability; format: in vivo, human
Protocol: This phase IIa single center study evaluated the safety, tolerability, pharmacokinetics, and efficacy of oral gepotidacin 1500 mg BID for 5 days in female subjects with acute cystitis. Clean catch mid-stream urine specimens were obtained for quantitative culture by standard methods. Urine samples were taken from all participants pre-treatment (baseline) and at all post-baseline visits. All urine samples were sent to a central laboratory (PPD Global Clinical Laboratories, Highland Heights, Ky., USA) for Gram stain, quantitative culture, pathogen identification and susceptibility testing. See FIG. 1 for participant disposition and study outline.
Serial blood and urine PK sampling were performed for the first dose of study treatment on Day 1 and for the time-matched dose on Day 4. Participants took all doses of gepotidacin with food and remained in the clinic to complete a total of 10 doses. Participants were instructed to return for the TOC (Day 10 to 13) and Follow-up (Day 28±3) Visits.

[2] = MIC, conclusion to Example 1 Methods 1 and 2; format: cell-based; details: at least one strain of every organism listed
Protocol: Antimicrobial activity was determined by broth microdilution using the CLSI recommended procedure.
Antimicrobial activity was determined in a second study by […] using the CLSI recommended procedure in serial two-fold dilutions and the minimum inhibitory concentration (MIC) was determined as the lowest concentration of the compound that inhibited visible growth.

Porphyromonas spp. = experiment: MIC by CLSI agar dilution, Example 6 Method 1; format: cell-based; details: 26 isolates, read-out: Gepotidacin MIC90
Protocol: (§1) Antimicrobial activity was determined by agar dilution using the Clinical and Laboratory Standards Institute (CLSI) recommended procedure.
(§2) The compounds were tested in serial two-fold dilutions and the minimum inhibitory concentration (MIC) was determined as the lowest concentration of the compound that inhibited visible growth. Gepotidacin was tested against 333 gram-negative anaerobic and 203 gram-positive anaerobic isolates collected from clinical samples in North America and Europe from 2000 to 2017; the majority collected from 2013 to 2016.
(§3) Ceftriaxone, clindamycin, imipenem, metronidazole, moxifloxacin and piperacillin/tazobactam were included as comparators.
(§4) Additional analysis was performed from the results of the study described in Method 1 above, to determine the in vitro activity of gepotidacin against gram-negative and gram-positive anaerobic organisms with resistance to ceftriaxone, clindamycin, imipenem, metronidazole, moxifloxacin and piperacillin/tazobactam.

Bacteroides spp. = experiment: MIC by CLSI agar dilution, Example 6 Method 1; format: cell-based; details: for Gepotidacin MIC range: agar dilution
Protocol: as §1, §2, §3, §4

[3] = system: gram-negative and gram-positive anaerobes tested; experiment: MIC by CLSI agar dilution, Example 6 Method 1; format: cell-based
Protocol: as §1, §2, §3, §4

Eggerthella lenta = experiment: MIC by CLSI agar dilution, Example 6 Method 1; format: cell-based
Protocol: as §1, §2, §3, §4

Veillonella spp. = experiment: MIC by CLSI agar dilution, Example 6 Method 1; format: cell-based
Protocol: as §1, §2, §3, §4

Clostridium difficile = experiment: MIC by CLSI agar dilution, Example 6 Method 1; format: cell-based
Protocol: as §1, §2, §3, §4

[4] = system: Sutterella wadsworthensis; experiment: MIC by CLSI agar dilution, Example 6 Method 1; format: cell-based
Protocol: as §1, §2, §3, §4

Fusobacterium spp. = experiment: MIC by CLSI agar dilution, Example 6 Method 1; format: cell-based
Protocol: as §1, §2, §3, §4

Lactobacillus spp. = experiment: MIC by CLSI agar dilution, Example 6 Method 1; format: cell-based
Protocol: as §1, §2, §3, §4

[5] = system: Peptostreptococcus anaerobius; experiment: MIC by CLSI agar dilution, Example 6 Method 1; format: cell-based; details: for Gepotidacin MIC range: 3 isolates
Protocol: as §1, §2, §3, §4

Eubacterium spp. = experiment: MIC by CLSI agar dilution, Example 6 Method 1; format: cell-based
Protocol: as §1, §2, §3, §4

Prevotella spp. = experiment: MIC by CLSI agar dilution, Example 6 Method 1; format: cell-based
Protocol: as §1, §2, §3, §4

Bifidobacterium spp. = experiment: MIC by CLSI agar dilution, Example 6 Method 1; format: cell-based
Protocol: as §1, §2, §3, §4

[6] = system: S. lugdenensis, S. agalactiae, Streptococcus group G and Streptococcus group F; experiment: MIC by CLSI broth microdilution, Example 5 second study; format: cell-based; details: at least one strain of every organism listed
Excerpt: A second study tested gepotidacin by CLSI broth microdilution against bacterial isolates collected from patients with acute bacterial skin and soft tissue infections between 2013-2014.
Amoxicillin/clavulanic acid, linezolid, fusidic acid, ceftriaxone, ceftaroline, vancomycin, penicillin, quinupristin/dalfopristin, erythromycin, clindamycin, meropenem, tetracycline, chloramphenicol, flucloxacillin, telavancin, daptomycin, trimethoprim/sulfamethoxazole, gentamicin, levofloxacin, tigecycline and cefuroxime were included as comparators. MICs were determined by broth microdilution according to CLSI methods.
In addition, MICs were determined by broth microdilution according CLSI methods and all the comparators from the list above were evaluated against gram-positive aerobe organisms selected from S. lugdenensis, S. agalactiae, Streptococcus group G and Streptococcus group F.

Q: Which results are given for `O=c1ccc2ncc(=O)n3c2n1C[C@H]3CN1CCC(NCc2cc3c(cn2)OCCC3)CC1` [gepotidacin, (2R)-2-({4-[(3,4-dihydro-2H-pyrano[2,3-c]pyridin-6-ylmethyl)amino]-1-piperidinyl}methyl)-1,2-dihydro-3H,8H-2a,5,8a-triazaacenaphthylene-3,8-dione]?
A: Back pain, n (%) ([1]; N = 22): 2 (9); Chest discomfort, n (%) ([1]; N = 22): 2 (9); Gastrointestinal disorders, n (%) ([1]; N = 22): 21 (95); General disorders and administration site conditions, n (%) ([1]; N = 22): 2 (9); Headache, n (%) ([1]; N = 22): 5 (23); Infections and infestations, n (%) ([1]; N = 22): 6 (27); Nervous system disorders, n (%) ([1]; N = 22): 5 (23); Viral upper respiratory tract infection, n (%) ([1]; N = 22): 2 (9); Vomiting, n (%) ([1]; N = 22): 5 (23); Vulvovaginal mycotic infection, n (%) ([1]; N = 22): 2 (9); Any adverse event, n (%) ([1]; N = 22, 1500 mg BID 5 days): 21 (95); Musculoskeletal and connective tissue disorders, n (%) ([1]; female, human, in vivo, 5 days): 3 (14); safety laboratory parameters, vital signs, ECG ([1]; in vivo): no clinically relevant trends; also recorded: no clinically significant changes; withdrawals or study treatment discontinuations due to AEs ([1]; in vivo): No withdrawal due to AE; also recorded: no withdrawals or study treatment discontinuations due to AEs; Episodes of vomiting considered drug related ([1]; mild or moderate, not treatment limiting): 4 participants; intensity of GI AEs ([1]; onset at day 1, improving upon repeat dosing): mild or moderate; tolerability ([1]; oral 1500 mg BID for 5 days): tolerated with no dose-limiting AEs; MIC [2]: ≤ 8 µg/mL; MIC90 (Porphyromonas spp.): 1 µg/mL (≈ 2.23 µM); MIC90 (Bacteroides spp.; Bacteroides, 191 isolates, read-out: Gepotidacin MIC90): 4 µg/mL (≈ 8.92 µM); Gepotidacin MIC range (Bacteroides spp.; ceftriaxone R, 100 isolates): ≤0.015 to 32 µg/mL; Gepotidacin MIC range (Bacteroides spp.; clindamycin R, 53 isolates): ≤0.015 to 32 µg/mL; Gepotidacin MIC range (Bacteroides spp.; moxifloxacin R, 32 isolates): 0.25 to 32 µg/mL; MIC [3]: ≤ 2 µg/mL; MIC90 ([3]; 333 gram-negative and 203 gram-positive anaerobic isolates, per pathogen group): ≤ 4 µg/mL; MIC ([3]; Bacteroides caccae, read-out: MICs): ≤ 4 µg/mL; MIC90 (Eggerthella lenta; Eggerthella lenta, 21 isolates, read-out: Gepotidacin MIC90): 4 µg/mL (≈ 8.92 µM); Gepotidacin MIC range (Eggerthella lenta; ceftriaxone R, 19 isolates): 0.06 to 32 µg/mL; Gepotidacin MIC range (Eggerthella lenta; clindamycin R, 3 isolates): 1 to 4 µg/mL; Gepotidacin MIC range (Eggerthella lenta; moxifloxacin R, 6 isolates): 1 to 32 µg/mL; MIC90 (Veillonella spp.; Veillonella, 25 isolates, read-out: Gepotidacin MIC90): 0.12 µg/mL (≈ 0.268 µM); Gepotidacin MIC range (Veillonella spp.; clindamycin R, 5 isolates): 0.125 µg/mL; Gepotidacin MIC range (Veillonella spp.; moxifloxacin R, 3 isolates): ≤0.015 to 0.03 µg/mL; Gepotidacin MIC range (Clostridium difficile; Clostridioides difficile ceftriaxone R, 48 isolates): 0.5 to 4 µg/mL; Gepotidacin MIC range (Clostridium difficile; Clostridioides difficile clindamycin R, 23 isolates): 0.5 to 2 µg/mL; Gepotidacin MIC range (Clostridium difficile; Clostridioides difficile imipenem R, 2 isolates): 1 µg/mL; Gepotidacin MIC range (Clostridium difficile; Clostridioides difficile moxifloxacin R, 37 isolates): 0.5 to 8 µg/mL; MIC90 (Clostridium difficile; Clostridioides difficile, 100 isolates, read-out: Gepotidacin MIC90): 2 µg/mL (≈ 4.46 µM); MIC90 ([4]; Sutterella wadsworthensis, 10 isolates, read-out: Gepotidacin MIC90): 1 µg/mL (≈ 2.23 µM); Gepotidacin MIC range ([4]; metronidazole R, 4 isolates): 0.5 to 1 µg/mL; MIC90 (Fusobacterium spp.; Fusobacterium, 25 isolates, read-out: Gepotidacin MIC90): 2 µg/mL (≈ 4.46 µM); Gepotidacin MIC range (Fusobacterium spp.; clindamycin R, 2 isolates): 0.25 to 2 µg/mL; MIC90 (Lactobacillus spp.; Lactobacillus, 91 isolates, read-out: Gepotidacin MIC90): 1 µg/mL (≈ 2.23 µM); Gepotidacin MIC range (Lactobacillus spp.; clindamycin R, 3 isolates): 0.03 to 1 µg/mL; Gepotidacin MIC range (Lactobacillus spp.; imipenem R, 27 isolates): 0.03 to 1 µg/mL; MIC90 ([5]; Peptostreptococcus anaerobius, 25 isolates, read-out: Gepotidacin MIC90): 0.03 µg/mL (≈ 0.0669 µM); Gepotidacin MIC range ([5]; clindamycin R): ≤0.015 to 0.03 µg/mL; Gepotidacin MIC range ([5]; moxifloxacin R): 0.03 µg/mL; MIC90 (Eubacterium spp.; Eubacterium, 31 isolates, read-out: Gepotidacin MIC90): 2 µg/mL (≈ 4.46 µM); Gepotidacin MIC range (Eubacterium spp.; moxifloxacin R, 3 isolates): 0.25 to 2 µg/mL; MIC90 (Prevotella spp.; Prevotella, 30 isolates, read-out: Gepotidacin MIC90): 4 µg/mL (≈ 8.92 µM); Gepotidacin MIC range (Prevotella spp.; ceftriaxone R, 6 isolates): 0.25 to 2 µg/mL; Gepotidacin MIC range (Prevotella spp.; clindamycin R, 7 isolates): 0.25 to 4 µg/mL; MIC90 (Bifidobacterium spp.; Bifidobacterium, 26 isolates, read-out: Gepotidacin MIC90): 0.5 µg/mL (≈ 1.11 µM); Gepotidacin MIC range (Bifidobacterium spp.; moxifloxacin R, 3 isolates): 0.125 to 0.5 µg/mL; MIC [6]: ≤ 2 µg/mL

Source: patent US20220184071A1, “GEPOTIDACIN FOR USE IN THE TREATMENT OF BACTERIAL URINARY TRACT INFECTIONS” (GlaxoSmithKline Intellectual Property Development Limited, priority 2019, published 2022)
